# Reference: the supplement of paper PMC10307832
# What was measured:
# Test in all cases: relative viability (nuclei count vs DMSO), 5 days (fraction); higher = more cells survive
# [1] = compound: CC1=C(C(=O)N2C=CSC2=N1)CCN3CCC(=C(C4=CC=CC=C4)C5=CC=C(C=C5)F)CC3 + CS(=O)(=O)CCNCc1ccc(-c2ccc3ncnc(Nc4ccc(OCc5cccc(F)c5)c(Cl)c4)c3c2)o1 [Lapatinib] (partner 2 µM)
# Outline: (§1)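 Each reported value is a median over duplicate plates. It expresses relative viability: treated-well nuclei count divided by vehicle-well nuclei count. Lung cancer cell lines in 1536-well plates were dosed by pin tool a day after seeding, alone with one drug or with a fixed anchor-drug dose plus five library-drug doses (not always all listed) in √10 steps, and nuclei were counted after 5 days.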
# [2] = compound: CC1=C(C(=O)N2C=CSC2=N1)CCN3CCC(=C(C4=CC=CC=C4)C5=CC=C(C=C5)F)CC3 + O=C(c1cc(Cc2n[nH]c(=O)c3ccccc23)ccc1F)N1CCN(C(=O)C2CC2)CC1 [Olaparib] (partner 8 µM)
# Outline: as §1
# [3] = compound: CC1=C(C(=O)N2C=CSC2=N1)CCN3CCC(=C(C4=CC=CC=C4)C5=CC=C(C=C5)F)CC3 + N=C(N)NC(=N)NCCc1ccccc1 [Phenformin] (partner 250 µM)
# Outline: as §1
# [4] = compound: CC1=C(C(=O)N2C=CSC2=N1)CCN3CCC(=C(C4=CC=CC=C4)C5=CC=C(C=C5)F)CC3 + CC(=O)Nc1cccc(-n2c(=O)n(C3CC3)c(=O)c3c(Nc4ccc(I)cc4F)n(C)c(=O)c(C)c32)c1 [Trametinib] (partner 0.02 µM)
# Outline: as §1
Cell Line,relative viability ([1]; first compound 0.08 µM),relative viability ([1]; first compound 0.253 µM),relative viability ([1]; first compound 0.8 µM),relative viability ([1]; first compound 2.53 µM),relative viability ([1]; first compound 8 µM),relative viability ([2]; first compound 0.08 µM),relative viability ([2]; first compound 0.253 µM),relative viability ([2]; first compound 0.8 µM),relative viability ([2]; first compound 2.53 µM),relative viability ([2]; first compound 8 µM),relative viability ([3]; first compound 0.08 µM),relative viability ([3]; first compound 0.253 µM),relative viability ([3]; first compound 0.8 µM),relative viability ([3]; first compound 2.53 µM),relative viability ([3]; first compound 8 µM),relative viability ([4]; first compound 0.08 µM),relative viability ([4]; first compound 0.253 µM),relative viability ([4]; first compound 0.8 µM),relative viability ([4]; first compound 2.53 µM),relative viability ([4]; first compound 8 µM)
HOP-62,0.785,1.03,1.2,0.862,0.482,0.388,0.461,0.445,0.434,0.352,0.711,0.774,0.678,0.491,0.381,0.34,0.365,0.37,0.422,0.225
NCI-H1993,0.801,–,0.886,0.706,0.808,1,0.944,1.01,1.3,0.838,0.505,0.411,0.51,0.568,0.536,0.494,0.364,0.501,0.511,0.513
NCI-H460,0.629,1.32,1.06,0.93,0.496,0.441,0.361,0.423,0.409,0.343,0.474,0.562,0.611,0.548,0.113,0.129,0.132,0.129,0.124,0.129
UMC-11,0.999,0.745,0.86,1.21,0.821,0.44,–,1.05,0.307,0.342,0.366,0.326,0.321,0.338,0.255,0.461,–,0.701,0.778,0.556
NCI-H2126,0.848,0.815,0.77,0.772,0.836,1.07,0.855,0.975,0.968,0.695,0.518,0.541,0.525,0.555,0.517,0.591,0.514,0.58,0.607,0.466
NCI-H650,–,0.883,0.838,1.03,0.646,0.44,0.363,0.345,0.412,0.352,0.404,0.521,0.421,0.497,0.404,0.997,0.891,0.986,1.07,0.932
201T,1.12,1.08,0.999,1.09,1.11,0.941,0.791,0.824,0.92,0.884,0.504,0.463,0.433,0.477,0.386,0.7,0.749,0.709,0.75,0.722
NCI-H358,0.442,0.535,0.427,0.44,0.404,0.654,0.611,0.613,0.774,0.502,0.344,0.361,0.361,0.379,0.243,0.12,0.121,0.127,0.133,0.136
NCI-H1755,1.08,1.01,1.05,1.08,0.861,0.892,0.995,0.939,0.934,0.719,0.681,0.659,0.578,0.66,0.565,0.751,0.716,0.794,0.778,0.595
NCI-H1355,1.04,0.981,1.03,0.997,0.885,0.749,0.815,0.793,0.732,0.529,0.428,0.442,0.441,0.427,0.391,0.49,0.444,0.407,0.408,0.421
LOU-NH91,0.774,0.809,0.765,0.814,0.803,0.872,0.845,0.928,0.946,0.813,0.72,0.676,0.689,0.673,0.597,0.776,0.793,0.794,0.869,0.679
NCI-H2085,0.805,0.774,0.763,0.986,0.72,0.805,0.776,0.807,0.783,0.735,0.769,0.699,0.661,0.762,0.591,0.484,0.52,0.491,0.66,0.452
NCI-H661,0.428,0.469,0.538,0.39,0.355,0.797,0.73,0.8,0.783,0.463,0.242,0.268,0.277,0.297,0.291,0.49,0.486,0.525,0.518,0.462
NCI-H1792,1.02,0.401,0.931,0.921,0.489,0.318,0.357,0.631,0.603,0.348,–,0.257,0.211,0.33,0.254,0.205,0.432,0.378,0.531,0.166
EKVX,0.173,0.227,0.194,0.19,0.231,0.83,0.868,0.922,0.87,0.729,0.211,0.26,0.236,0.207,0.221,0.354,0.42,0.358,0.314,0.292
NCI-H1651,0.876,0.759,0.912,1.02,0.514,0.165,0.176,0.189,0.217,0.183,0.341,0.321,0.352,0.304,0.283,0.783,0.915,0.837,0.866,0.712
